Laboratory results from publication PMC5539802 (2014).

Key:
[1] = test system: F21T (DNA, G4) GGGTTAGGGTTAGGGTTAGGG; assay: FRET melting; settings: 100 mM K+; potassium cacodylate pH 7.0; 200 nM DNA; complex concentration not in material
[2] = test system: ON1 (DNA, G4) GTGGGTAGGGCGGGTTGGTGGCGACGGCAGCGAGGCAGAGGAGCAGAGGGAGCA; assay: luminescence enhancement; settings: 20 mM K+, 150 mM NH4+; 20 mM Tris pH 7.2; 1 μM complex; G-quadruplex released by helicase unwinding of ON1-ON2
[3] = test system: F10T (DNA, hairpin, hexaethylene glycol (HEG) linker between nucleotides 8 and 9) TATAGCTATATAGCTATAT; assay: FRET melting; settings: 10 mM Li+; lithium cacodylate pH 7.4; same complex concentration as F21T
[4] = test system: ds17 (DNA, duplex) CCAGTTCGTAGTAACCC/GGGTTACTACGAACTGG; assay: G4-FID thiazole orange displacement; settings: Tris-HCl buffer; thiazole orange 0.5 μM displaced; less effective than for Pu27
[5] = test system: PS2.M (DNA, G4) GTGGGTAGGGCGGGTTGG; assay: luminescence enhancement; settings: 100 mM K+ (annealing); 1 μM complex, 5 μM DNA; 20 mM Tris-HCl pH 7.0
[6] = test system: ON1-ON2 duplex substrate (DNA, duplex) GTGGGTAGGGCGGGTTGGTGGCGACGGCAGCGAGGCAGAGGAGCAGAGGGAGCA/GCCTCGCTGCCGTCGCCACCAACCCGCCC; assay: luminescence enhancement; settings: 20 mM K+, 150 mM NH4+; 20 mM Tris pH 7.2; 1 μM complex; duplex without helicase unwinding

With `[Ir+3].[c-]1ccccc1-c1ccc2ccccc2n1.[c-]1ccccc1-c1ccc2ccccc2n1.c1cnc2c(c1)ccc1cccnc12` the ΔTm [1] was ~ 13 °C, the binding [2] was “yes” and the ΔTm [3] was 4 °C. For the same compound, the binding [4] was “weak”, the binding [5] was “yes” and the binding [6] was “weak”.

With `Clc1cc2cccnc2c2ncccc12.[Ir+3].[c-]1ccccc1-c1ccc2ccccc2n1.[c-]1ccccc1-c1ccc2ccccc2n1` the binding [5] was “yes”.
